Measured values as given in patent US20210045385A1, “PYRIDAZINONE-SUBSTITUTED KETOXIMES AS HERBICIDES” (FMC Corporation, priority 2018, published 2021).

Legend:
Format in all cases: in vivo
[1] = system: Italian ryegrass (Lolium multiflorum); experiment: Test A preemergence, visual plant response rating; conditions: approx. 10 days
Method in brief: (§1)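 Formulated in a non-phytotoxic solvent mixture including surfactant, each test chemical was sprayed onto the soil surface after sowing, or onto seedlings 2 to 10 cm high. Roughly 10 days later, plants were compared with untreated controls and rated for injury from 0 (no effect) to 100 (complete control).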

[2] = system: pigweed (Amaranthus retroflexus); experiment: Test A preemergence, visual plant response rating; conditions: approx. 10 days
Method in brief: as §1

[3] = system: ragweed (common ragweed, Ambrosia elatior); experiment: Test A preemergence, visual plant response rating; conditions: approx. 10 days
Method in brief: as §1

[4] = system: kochia (Kochia scoparia); experiment: Test A preemergence, visual plant response rating; conditions: approx. 10 days
Method in brief: as §1

[5] = system: foxtail, green (green foxtail, Setaria viridis); experiment: Test A preemergence, visual plant response rating; conditions: approx. 10 days
Method in brief: as §1

[6] = system: barnyardgrass (Echinochloa crus-galli); experiment: Test A preemergence, visual plant response rating; conditions: approx. 10 days
Method in brief: as §1

[7] = system: Italian ryegrass (Lolium multiflorum); experiment: Test A postemergence, visual plant response rating; conditions: for Ryegrass, Italian plant response rating (0 to 100 scale): 500 g ai/ha, postemergence, 0 is no effect, 100 is complete control; for Ryegrass, Italian plant response rating: Postemergence, 125 g ai/ha, 0 to 100 scale (0 no effect, 100 complete control)
Method in brief: as §1

[8] = system: pigweed (Amaranthus retroflexus); experiment: Test A postemergence, visual plant response rating; conditions: for Pigweed plant response rating (0 to 100 scale): 500 g ai/ha, postemergence, 0 is no effect, 100 is complete control; for Pigweed plant response rating: Postemergence, 125 g ai/ha, 0 to 100 scale (0 no effect, 100 complete control)
Method in brief: as §1

[9] = system: ragweed (common ragweed, Ambrosia elatior); experiment: Test A postemergence, visual plant response rating; conditions: for Ragweed plant response rating (0 to 100 scale): 500 g ai/ha, postemergence, 0 is no effect, 100 is complete control; for Ragweed plant response rating: Postemergence, 125 g ai/ha, 0 to 100 scale (0 no effect, 100 complete control)
Method in brief: as §1

[10] = system: kochia (Kochia scoparia); experiment: Test A postemergence, visual plant response rating; conditions: for Kochia plant response rating (0 to 100 scale): 500 g ai/ha, postemergence, 0 is no effect, 100 is complete control; for Kochia plant response rating: Postemergence, 125 g ai/ha, 0 to 100 scale (0 no effect, 100 complete control)
Method in brief: as §1

[11] = system: foxtail, green (green foxtail, Setaria viridis); experiment: Test A postemergence, visual plant response rating; conditions: for Foxtail, Green plant response rating (0 to 100 scale): 500 g ai/ha, postemergence, 0 is no effect, 100 is complete control; for Foxtail, Green plant response rating: Postemergence, 125 g ai/ha, 0 to 100 scale (0 no effect, 100 complete control)
Method in brief: as §1

[12] = system: corn (Zea mays); experiment: Test A postemergence, visual plant response rating; conditions: for Corn plant response rating (0 to 100 scale): 500 g ai/ha, postemergence, 0 is no effect, 100 is complete control; for Corn plant response rating: Postemergence, 125 g ai/ha, 0 to 100 scale (0 no effect, 100 complete control)
Method in brief: as §1

[13] = system: wheat (Triticum aestivum); experiment: Test A postemergence, visual plant response rating; conditions: for Wheat plant response rating (0 to 100 scale): 500 g ai/ha, postemergence, 0 is no effect, 100 is complete control; for Wheat plant response rating: Postemergence, 125 g ai/ha, 0 to 100 scale (0 no effect, 100 complete control)
Method in brief: as §1

[14] = system: barnyardgrass (Echinochloa crus-galli); experiment: Test A postemergence, visual plant response rating; conditions: for Barnyardgrass plant response rating (0 to 100 scale): 500 g ai/ha, postemergence, 0 is no effect, 100 is complete control; for Barnyardgrass plant response rating: Postemergence, 125 g ai/ha, 0 to 100 scale (0 no effect, 100 complete control)
Method in brief: as §1

[15] = system: blackgrass (Alopecurus myosuroides); experiment: Test A postemergence, visual plant response rating; conditions: for Blackgrass plant response rating (0 to 100 scale): 500 g ai/ha, postemergence, 0 is no effect, 100 is complete control; for Blackgrass plant response rating: Postemergence, 125 g ai/ha, 0 to 100 scale (0 no effect, 100 complete control)
Method in brief: as §1

[16] = system: galium (catchweed bedstraw, Galium aparine); experiment: Test A postemergence, visual plant response rating; conditions: for Galium plant response rating (0 to 100 scale): 500 g ai/ha, postemergence, 0 is no effect, 100 is complete control; for Galium plant response rating: Postemergence, 125 g ai/ha, 0 to 100 scale (0 no effect, 100 complete control)
Method in brief: as §1

[17] = system: ducksalad (Heteranhera limosa); experiment: Test B flooded paddy test, visual plant response rating; conditions: 250 g ai/ha, Flood, applied to paddy water, 2-leaf stage, evaluated after 13 to 15 days
Method in brief: (§2)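 Seedlings at 2 leaves; compound into paddy water (3 cm flood, maintained); 13–15 d greenhouse; visual score relative to controls.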

[18] = system: sedge, umbrella (small-flower umbrella sedge, Cyperus difformis); experiment: as above; conditions: 250 g ai/ha, Flood, applied to paddy water, 2-leaf stage, evaluated after 13 to 15 days
Method in brief: as §2

[19] = system: barnyardgrass (Echinochloa crus-galli); experiment: as above; conditions: 250 g ai/ha, Flood, applied to paddy water, 2-leaf stage, evaluated after 13 to 15 days
Method in brief: as §2

[20] = system: rice (Oryza sativa); experiment: as above; conditions: 250 g ai/ha, Flood, applied to paddy water, 2-leaf stage, evaluated after 13 to 15 days
Method in brief: as §2

Row | SMILES | Ryegrass, Italian plant response rating (0 to 100 scale) ([1]; 125 g ai/ha Preemergence) | Ryegrass, Italian plant response rating (0 to 100 scale) ([1]; 500 g ai/ha Preemergence) | Pigweed plant response rating (0 to 100 scale) ([2]; 125 g ai/ha Preemergence) | Pigweed plant response rating (0 to 100 scale) ([2]; 500 g ai/ha Preemergence) | Ragweed plant response rating (0 to 100 scale) ([3]; 125 g ai/ha Preemergence) | Ragweed plant response rating (0 to 100 scale) ([3]; 500 g ai/ha Preemergence) | Kochia plant response rating (0 to 100 scale) ([4]; 125 g ai/ha Preemergence) | Kochia plant response rating (0 to 100 scale) ([4]; 500 g ai/ha Preemergence) | Foxtail, Green plant response rating (0 to 100 scale) ([5]; 125 g ai/ha Preemergence) | Foxtail, Green plant response rating (0 to 100 scale) ([5]; 500 g ai/ha Preemergence) | Barnyardgrass plant response rating (0 to 100 scale) ([6]; 125 g ai/ha Preemergence) | Barnyardgrass plant response rating (0 to 100 scale) ([6]; 500 g ai/ha Preemergence) | Ryegrass, Italian plant response rating (0 to 100 scale) [7] | Ryegrass, Italian plant response rating [7] | Pigweed plant response rating (0 to 100 scale) [8] | Pigweed plant response rating [8] | Ragweed plant response rating (0 to 100 scale) [9] | Ragweed plant response rating [9] | Kochia plant response rating (0 to 100 scale) [10] | Kochia plant response rating [10] | also measured
1 | CCO/N=C(/c1ccccc1C)c1c(O)c(C)nn(C)c1=O [Compound 15] | 70 | 80 | 60 | 70 | 30 | 90 | 0 | 10 | 0 | 60 | 30 | 80 | 80 | 60 | 30 | 20 | 80 | 60 | 20 | 0 | Foxtail, Green plant response rating (0 to 100 scale) [11]: 30; Foxtail, Green plant response rating [11]: 10; Corn plant response rating (0 to 100 scale) [12]: 10; Corn plant response rating [12]: 0; Wheat plant response rating (0 to 100 scale) [13]: 0; Wheat plant response rating [13]: 0; Barnyardgrass plant response rating (0 to 100 scale) [14]: 30; Barnyardgrass plant response rating [14]: 10; Blackgrass plant response rating (0 to 100 scale) [15]: 60; Blackgrass plant response rating [15]: 30; Galium plant response rating (0 to 100 scale) [16]: 90; Galium plant response rating [16]: 80; Plant response rating, Ducksalad (0 to 100 scale, 0 is no effect, 100 is complete control) [17]: 0; Plant response rating, Sedge, Umbrella (0 to 100 scale, 0 is no effect, 100 is complete control) [18]: 0; Plant response rating, Barnyardgrass (0 to 100 scale, 0 is no effect, 100 is complete control) [19]: 0; Plant response rating, Rice (0 to 100 scale, 0 is no effect, 100 is complete control) [20]: 0
2 | CO/N=C(/c1c(O)c(C)nn(C)c1=O)c1cccc2ccccc12 [Compound 31] | 40 | 70 | 40 | 90 | 30 | 80 | 10 | 90 | 30 | 90 | 10 | 70 | 90 | 60 | 90 | 60 | 90 | 70 | 80 | 70 | Foxtail, Green plant response rating (0 to 100 scale) [11]: 80; Foxtail, Green plant response rating [11]: 50; Corn plant response rating (0 to 100 scale) [12]: 50; Corn plant response rating [12]: 20; Wheat plant response rating (0 to 100 scale) [13]: 20; Wheat plant response rating [13]: 0; Barnyardgrass plant response rating (0 to 100 scale) [14]: 90; Barnyardgrass plant response rating [14]: 40; Blackgrass plant response rating (0 to 100 scale) [15]: 90; Blackgrass plant response rating [15]: 80; Galium plant response rating (0 to 100 scale) [16]: 90; Galium plant response rating [16]: 90; Plant response rating, Ducksalad (0 to 100 scale, 0 is no effect, 100 is complete control) [17]: 0; Plant response rating, Sedge, Umbrella (0 to 100 scale, 0 is no effect, 100 is complete control) [18]: 0; Plant response rating, Barnyardgrass (0 to 100 scale, 0 is no effect, 100 is complete control) [19]: 25; Plant response rating, Rice (0 to 100 scale, 0 is no effect, 100 is complete control) [20]: 40
3 | CO/N=C(\c1cccc(Cl)c1)c1c(O)c(C)nn(C)c1=O [Compound 10, 4-[(E)-(3-chlorophenyl)(methoxyimino)methyl]-5-hydroxy-2,6-dimethyl-3(2H)-pyridazinone] | 30 | 90 | 20 | 100 | 70 | 90 | 30 | 90 | 20 | 20 | 0 | 10 | 90 | 60 | 60 | 20 | 100 | 90 | 80 | 70 | Foxtail, Green plant response rating (0 to 100 scale) [11]: 20; Foxtail, Green plant response rating [11]: 0; Corn plant response rating (0 to 100 scale) [12]: 0; Corn plant response rating [12]: 0; Wheat plant response rating (0 to 100 scale) [13]: 20; Wheat plant response rating [13]: 0; Barnyardgrass plant response rating (0 to 100 scale) [14]: 10; Barnyardgrass plant response rating [14]: 0; Blackgrass plant response rating (0 to 100 scale) [15]: 30; Blackgrass plant response rating [15]: 10; Plant response rating, Ducksalad (0 to 100 scale, 0 is no effect, 100 is complete control) [17]: 0; Plant response rating, Sedge, Umbrella (0 to 100 scale, 0 is no effect, 100 is complete control) [18]: 0; Plant response rating, Barnyardgrass (0 to 100 scale, 0 is no effect, 100 is complete control) [19]: 0; Plant response rating, Rice (0 to 100 scale, 0 is no effect, 100 is complete control) [20]: 0
